Data taken from paper PMC3818835, “What Goes around Comes around-A Comparative Study of the Influence of Chemical Modifications on the Antimicrobial Properties of Small Cyclic Peptides” (Pharmaceuticals, 2013).
≈ marks a conversion by molar mass, not a printed value. Numbered stars: 1 amine (or outer) side, 2 acyl side, 3 side chain; on linkers, the order of the positions; unused ones are H or OH. Square brackets hold non-standard residues; d marks the D form. Peptide text beside a SMILES is read from it. * marks the point of attachment. X1 = COc1ccc2c(CC(N[*:1])C(=O)[*:2])cc(=O)oc2c1; NBD = O=[N+]([O-])c1ccc(*)c2nonc12; X2 = O=c1cc(C*)c2cc(Br)c(O)cc2o1; Dap = NC[C@H](N)C(=O)O

Legend:
E. coli DH5α [1] = conditions: 5 µM, PI influx; cited from earlier work
Protocol: (§1) Figure 4 Bacterial membrane permeabilisation determined with flow cytometry using propidium iodide (PI). PI influx after incubation with cWFW, fluorescent-labeled and K-substituted cyclic hexapeptides was tested into B. subtilis DSM 347 (A,C) and E. coli DH5α (B,D) at respective MICs. […] Preparations without peptide were used as negative co ...

B. subtilis DSM 347 [2] = conditions: 5 µM, PI influx; cited from earlier work
Protocol: as §1

B. subtilis DSM 347 [3] = format: cell-based; conditions: DSM 347, 18 h
Protocol: (§2) The minimal inhibitory concentration (MIC) of the cyclic hexapeptides was tested against Gram-negative E. coli DH5α and Gram-positive B. subtilis DSM 347 using a microdilution technique in 96 well microtiter plates as described previously. Briefly, cells from an overnight culture were inoculated 1:100 in LB medium, grown to mid log phase (OD600 0.4 ± 0.1) and adjusted to 5 × 10^5 cells/well. Final peptide concentrations ranged from 0.05 µM to 100 µM (2-fold dilutions) and were tested in triplicates in at least three independent experiments. The MIC was determined after 18 h of incubation at 37 °C, 180 rpm being the lowest peptide concentration at which no visible bacterial growth can be detected photometrically (A600, Safire Microplate Reader, Tecan, Männedorf, Germany).

E. coli DH5α [4] = format: cell-based; conditions: 18 h
Protocol: as §2

human erythrocytes = format: cell-based; conditions: pH 7.4
Protocol: The lytic effect of selected peptides upon human erythrocytes was determined as described before. Briefly, cells were washed thoroughly in Tris buffer (10 mM Tris, 150 mM NaCl, pH 7.4). Suspensions with 2.5 × 10^8 cells/mL were incubated with peptides at a final concentration of 100 µM for 30 min at 37 °C. After centrifugation, 0.6% NH4OH was added to an aliquot of the supernatant and hemoglobin absorption (A) was measured at 540 nm (Jasco V-550). Whole cell suspensions exposed to NH4OH were used as positive control (A100%) and preparations without peptide served as negative control (A0%), respectively. Data were collected in three independent experiments.

[5] = Hydrophobicity: retention time tR by reversed phase HPLC; format: physicochemical; conditions: chromatographic, RP-HPLC ProntoSil 300-5-C18-H (250 × 4.6 mm, 5 µm); peptide 1 mg/mL in phase A (0.1% TFA in water); B 0.1% TFA in 80% acetonitrile; linear gradient 5%–95% B over 40 min at 22 °C; used as a measure of hydrophobicity
Protocol: The retention time tR of the cyclic hexapeptides was determined by HPLC on a Jasco LC-2000Plus using a ProntoSil 300-5-C18-H column (250 × 4.6 mm, 5 µm) (Bischoff Chromatography). Peptide concentration was 1 mg/mL in mobile phase A (0.1% TFA in deionized water), mobile phase B consisted of 0.1% TFA in 80% acetonitrile in deionized water. For chromatographic analyses a linear gradient of 5%–95% phase B over 40 min at 22 °C was applied.
To investigate the influence of fluorescent label modification and amino acid substitution on the hydrophobicity/amphipathicity of the cyclic hexapeptide derivatives, we determined the retention time tR by reversed phase HPLC (Figure 2). The method monitors the retention of compounds by the hydrophobic HPLC stationary phase. Differences in tR reflect differences in the effective hydrophobicity of the molecule which is related to the intrinsic hydrophobicity of the individual residues and their ability to form hydrophobic domains for interaction with the HPLC matrix. At the same time, hydrophilic residues will locate at the opposite side of the molecule. Reduction in the size or positioning of cationic residues next to the hydrophobic molecular surface area would reduce amphipathicity. tR-measurements have successfully been applied to characterize amphipathic helices, β-structured peptides and different sets of our small cyclic R-, W-rich peptides.

B. subtilis DSM 347 [6] = assay: Propidium iodide influx (membrane permeabilisation), flow cytometry; format: cell-based; conditions: FACS, PI 10 µg/mL, peptide at respective MIC, LB, 5 × 10^5 cells/mL, 0-90 min at 37 °C
Protocol: (§3) Membrane permeabilisation was determined by fluorescence activated cell sorting (FACS) on a FACSCalibur (Becton Dickinson) equipped with a 488 nm argon laser. Propidium iodide (PI, 10 µg/mL) and peptides at a final concentration corresponding to the respective MIC were dissolved in LB. Cells were grown to mid log phase (OD600 0.4 ± 0.1) and added to the solution just before the measurement at a concentration of 5 × 10^5 cells/mL. Cells were sorted on the basis of PI fluorescence which increases upon intercalation with DNA. This can only be observed in the case of disturbed membrane integrity as PI cannot translocate across intact lipid bilayers. Cell fluorescence was measured after incubation time points of 0, 5, 10, 15, 20, 30, 60 and 90 min at 37 °C, 180 rpm. A minimum of 20,000 cells was recorded for each preparation. CellQuest^TM Pro software (Becton Dickinson) was used for data acquisition and results were analyzed with FCS Express V3 (De Novo Software, Los Angeles, CA, USA).

E. coli DH5α [7] = assay: as above; format: cell-based; conditions: FACS, PI 10 µg/mL, peptide at respective MIC, LB, 5 × 10^5 cells/mL, 0-90 min at 37 °C
Protocol: as §3

eukaryotic cells = tested on: eukaryotic cells; parameters: method as in PMID 15248771; conditions: cited from earlier work

Molecule	Membrane permeabilising potential, Gram-negative cells (positive control) (E. coli DH5α [1])	Membrane permeabilising potential, Gram-positive cells (positive control) (B. subtilis DSM 347 [2])	MIC B. subtilis DSM 347 (B. subtilis DSM 347 [3])	MIC E. coli DH5α (E. coli DH5α [4])	Hemolysis at 100 µM (human erythrocytes)	Retention Time tR [5]	PI influx / membrane permeabilisation, B. subtilis (B. subtilis DSM 347 [6])	PI influx / membrane permeabilisation, E. coli (E. coli DH5α [7])	Toxicity towards eukaryotic cells (eukaryotic cells)
polymyxin B	high membrane permeabilising potential	–	–	–	–	–	–	–	–
KLALKLALKALKAALKLA-NH2 [KLA-1, helical model peptide …-NH2, positive control in Gram-positive cells]	–	high membrane permeabilising potential	–	–	–	–	–	–	–
N=C(N)NCCC[C@@H]1NC(=O)[C@H](CCCNC(=N)N)NC(=O)[C@H](Cc2c[nH]c3ccccc23)NC(=O)[C@H](CSCc2cc(=O)oc3cc(O)c(Br)cc23)NC(=O)[C@H](Cc2c[nH]c3ccccc23)NC(=O)[C@H](CCCNC(=N)N)NC1=O [cW[S-Cu]W] (cyclo(RRRWC(X2)W))	–	–	6 µM (≈ 7.18 µg/mL)	25 µM (≈ 29.9 µg/mL)	76%	18.91 min	slightly higher	pronounced membrane disruption	–
N=C(N)NCCC[C@@H]1NC(=O)[C@H](CCCNC(=N)N)NC(=O)[C@H](Cc2c[nH]c3ccccc23)NC(=O)[C@H](Cc2ccccc2)NC(=O)[C@H](Cc2c[nH]c3ccccc23)NC(=O)[C@H](CCCNC(=N)N)NC1=O [cWFW] (cyclo(FWRRRW); ring closure inferred)	–	–	3 µM (≈ 2.96 µg/mL)	3 µM (≈ 2.96 µg/mL)	4%	17.67 min	–	–	no toxicity towards eukaryotic cells could be detected
COc1ccc2c(CC3NC(=O)[C@H](Cc4c[nH]c5ccccc45)NC(=O)[C@H](CCCNC(=N)N)NC(=O)[C@H](CCCNC(=N)N)NC(=O)[C@H](CCCNC(=N)N)NC(=O)[C@H](Cc4c[nH]c5ccccc45)NC3=O)cc(=O)oc2c1 (stereo partly shown) [cW[Cu]W] (cyclo(RRRW[X1]W))	–	–	6 µM (≈ 6.52 µg/mL)	25 µM (≈ 27.2 µg/mL)	23%	18.40 min	slightly higher	pronounced membrane disruption	–
COc1ccc2c(CC3NC(=O)[C@H](Cc4c[nH]c5ccccc45)NC(=O)[C@H](CCCCN)NC(=O)[C@H](CCCNC(=N)N)NC(=O)[C@H](CCCCN)NC(=O)[C@H](Cc4c[nH]c5ccccc45)NC3=O)cc(=O)oc2c1 (stereo partly shown) [cR2[Cu]] (cyclo(KRKW[X1]W))	–	–	6 µM (≈ 6.18 µg/mL)	50 µM (≈ 51.5 µg/mL)	4%	17.20 min	–	pronounced membrane disruption	–
N=C(N)NCCC[C@@H]1NC(=O)[C@H](CCCNC(=N)N)NC(=O)[C@H](Cc2c[nH]c3ccccc23)NC(=O)[C@H](CNc2ccc([N+](=O)[O-])c3nonc23)NC(=O)[C@H](Cc2c[nH]c3ccccc23)NC(=O)[C@H](CCCNC(=N)N)NC1=O [cW[NBD]W] (cyclo(RRRW[Dap](NBD)W))	–	–	25 µM (≈ 27.3 µg/mL)	50 µM (≈ 54.5 µg/mL)	76%	17.90 min	–	pronounced membrane disruption	–
N=C(N)NCCC[C@@H]1NC(=O)[C@H](CCCCN)NC(=O)[C@H](Cc2c[nH]c3ccccc23)NC(=O)[C@H](CNc2ccc([N+](=O)[O-])c3nonc23)NC(=O)[C@H](Cc2c[nH]c3ccccc23)NC(=O)[C@H](CCCCN)NC1=O [cR2[NBD]] (cyclo(KRKW[Dap](NBD)W))	–	–	12 µM (≈ 12.4 µg/mL)	50 µM (≈ 51.7 µg/mL)	26%	17.47 min	–	No E. coli membrane permeabilisation could be detected	–
